Measured values from ChEMBL document CHEMBL1201862, “PubChem BioAssay data set” (2004).
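1) Cells in 96-well plates. 2) Compound, 48 h, 5 concentrations. 3) Linear interpolation between surrounding doses. 4) Unreached endpoint = highest concentration. GI50: concentration for 50% inhibition of growth.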 The source made the active and inactive calls. No stated cut-off is given here; in the data, active = GI50 up to about 1.1 µM and inactive = higher.

What was measured:
Assay in all cases: NCI anticancer screen, dose series, 48 h
[1] = test system: OVCAR-3
[2] = test system: OVCAR-4
[3] = test system: A498
[4] = test system: DMS-114
[5] = test system: KM-20L2
[6] = test system: UACC-62
[7] = test system: UACC-257
[8] = test system: LOX IMVI
[9] = test system: SNB-19
[10] = test system: A549
[11] = test system: NCI/ADR-RES
[12] = test system: CCRF-CEM
[13] = test system: EKVX
[14] = test system: HL-60
[15] = test system: UO-31
[16] = test system: OVCAR-8
[17] = test system: SK-MEL-2
[18] = test system: HCC 2998
[19] = test system: HCT-15
[20] = test system: SW-620
[21] = test system: M19-MEL
[22] = test system: HT-29
[23] = test system: NCI-H522
[24] = test system: HOP-18
[25] = test system: IGROV-1
[26] = test system: U-251
[27] = test system: SNB-75
[28] = test system: SF-268
[29] = test system: MOLT-4
[30] = test system: HCT-116
[31] = test system: SK-MEL-5
[32] = test system: XF498
[33] = test system: SN12C
[34] = test system: RPMI-8226
[35] = test system: OVCAR-5
[36] = test system: K562
[37] = test system: Malme-3M
[38] = test system: DMS-273
[39] = test system: SF-295
[40] = test system: MCF7
[41] = test system: NCI-H460
[42] = test system: HOP-62
[43] = test system: SK-MEL-28
[44] = test system: NCI-H23
[45] = test system: COLO 205
[46] = test system: HOP-92
[47] = test system: SF-539
[48] = test system: KM12
[49] = test system: SNB-78
[50] = test system: DLD-1
[51] = test system: SK-OV-3
[52] = test system: CAKI-1
[53] = test system: NCI-H226
[54] = test system: RXF 393

`CCCCC(NC(=O)CC)C(=O)O` (configuration not stated) was tested, and the GI50 [1] was > 100 µM (inactive), the GI50 [2] was > 100 µM (inactive) and the GI50 [3] was > 100 µM (inactive). The GI50 [4] was > 100 µM (inactive), the GI50 [5] was > 100 µM (inactive) and the GI50 [6] was > 100 µM (inactive). For the same molecule, the GI50 [7] was > 100 µM (inactive), the GI50 [8] was > 100 µM (inactive) and the GI50 [9] was > 100 µM (inactive). For the same molecule, the GI50 [10] was > 100 µM (inactive), the GI50 [11] was > 100 µM (inactive) and the GI50 [12] was > 100 µM (inactive). For the same molecule, the GI50 [13] was > 100 µM (inactive), the GI50 [14] was > 100 µM (inactive) and the GI50 [15] was > 100 µM (inactive). The GI50 [16] was > 100 µM (inactive), the GI50 [17] was > 100 µM (inactive) and the GI50 [18] was > 31.6 µM (inactive). For the same molecule, the GI50 [19] was over 100 µM, the GI50 [20] was > 100 µM (inactive) and the GI50 [21] was > 100 µM (inactive). For the same molecule, the GI50 [22] was > 100 µM (inactive), the GI50 [23] was > 100 µM (inactive) and the GI50 [24] was > 100 µM (inactive). For the same molecule, the GI50 [25] was > 100 µM (inactive), the GI50 [26] was > 100 µM (inactive) and the GI50 [27] was > 100 µM (inactive). The GI50 [28] was > 100 µM (inactive), the GI50 [29] was > 100 µM (inactive) and the GI50 [30] was > 100 µM (inactive). For the same molecule, the GI50 [31] was > 100 µM (inactive), the GI50 [32] was > 100 µM (inactive) and the GI50 [33] was > 100 µM (inactive). For the same molecule, the GI50 [34] was > 100 µM (inactive), the GI50 [35] was > 100 µM (inactive) and the GI50 [36] was > 100 µM (inactive). The GI50 [37] was > 100 µM (inactive), the GI50 [38] was > 100 µM (inactive) and the GI50 [39] was > 100 µM (inactive). The GI50 [40] was > 100 µM (inactive), the GI50 [41] was > 100 µM (inactive) and the GI50 [42] was > 100 µM (inactive). For the same molecule, the GI50 [43] was > 100 µM (inactive), the GI50 [44] was > 100 µM (inactive) and the GI50 [45] was > 100 µM (inactive). The GI50 [46] was > 100 µM (inactive), the GI50 [47] was > 100 µM (inactive) and the GI50 [48] was > 100 µM (inactive). For the same molecule, the GI50 [49] was > 100 µM (inactive), the GI50 [50] was > 100 µM (inactive) and the GI50 [51] was > 100 µM (inactive). The GI50 [52] was > 100 µM (inactive) and the GI50 [53] was > 100 µM (inactive).

For `O=C1NC(c2cccc3ccccc23)Nc2ccc(O)cc21` (configuration not stated), the GI50 [1] was 24.5 µM (inactive), the GI50 [2] was 1.1 µM (active) and the GI50 [3] was 23.9 µM (inactive). The GI50 [4] was 7.35 µM (inactive), the GI50 [5] was 40.3 µM (inactive) and the GI50 [6] was 21 µM (inactive). The GI50 [7] was 23.4 µM (inactive), the GI50 [8] was 16.2 µM (inactive) and the GI50 [9] was 58.1 µM (inactive). The GI50 [10] was 33.4 µM (inactive), the GI50 [11] was 16 µM (inactive) and the GI50 [12] was 20.2 µM (inactive). The GI50 [13] was 42.3 µM (inactive), the GI50 [14] was 6.14 µM (inactive) and the GI50 [15] was 30.2 µM (inactive). The GI50 [16] was 36.9 µM (inactive), the GI50 [17] was 20.4 µM (inactive) and the GI50 [18] was 27.2 µM (inactive). The GI50 [19] was 11 µM, the GI50 [20] was 17.6 µM (inactive) and the GI50 [54] was 31 µM (inactive). The GI50 [21] was 28.6 µM (inactive), the GI50 [22] was 40.5 µM (inactive) and the GI50 [23] was 22.3 µM (inactive). For the same molecule, the GI50 [24] was 43.3 µM (inactive), the GI50 [25] was 35.1 µM (inactive) and the GI50 [26] was 38.8 µM (inactive). For the same molecule, the GI50 [27] was 38.6 µM (inactive), the GI50 [28] was 35.6 µM (inactive) and the GI50 [29] was 9.48 µM (inactive). The GI50 [30] was 32.1 µM (inactive), the GI50 [31] was 23.8 µM (inactive) and the GI50 [32] was 24.7 µM (inactive). The GI50 [33] was 39.9 µM (inactive), the GI50 [34] was 24.2 µM (inactive) and the GI50 [35] was 32.6 µM (inactive). The GI50 [36] was 8.57 µM (inactive), the GI50 [37] was 24.4 µM (inactive) and the GI50 [38] was 10.4 µM (inactive). The GI50 [39] was 27.5 µM (inactive), the GI50 [40] was 16.1 µM (inactive) and the GI50 [41] was 28 µM (inactive). The GI50 [42] was 31.8 µM (inactive), the GI50 [43] was 47.1 µM (inactive) and the GI50 [44] was 34 µM (inactive). For the same molecule, the GI50 [45] was 34.1 µM (inactive), the GI50 [46] was 35 µM (inactive) and the GI50 [47] was 33 µM (inactive). The GI50 [48] was 23.4 µM (inactive), the GI50 [49] was 40.3 µM (inactive) and the GI50 [50] was 33.5 µM (inactive). The GI50 [51] was 41.1 µM (inactive), the GI50 [52] was 30.5 µM (inactive) and the GI50 [53] was 19.5 µM (inactive).
